# Source: patent publication US10913750B2, “Tubulin-binding compounds, compositions and uses related thereto” (The Regents of the University of California, priority 2015, dated 2021)
# Tests used:
# Assay type in all cases: cell-based
# M395 = assay: CellTiter-Glo cell viability, M395
# Description: (§1) To determine if MI-181 had broad anti-cancer activity, we treated a diverse panel of cancer cell lines including cervical adenocarcinoma (HeLa), breast adenocarcinoma (MCF7), melanoma (M233), osteosarcoma (U205), acute lymphoblastic leukemia (CCRF-CEM), non-small cell lung carcinoma (NCI-H460), and breast adenocarcinoma (MCF7) with MI-181 and determined its cell viability IC50 (FIGS. 13A and 13B). […] Therefore, the efficacy of MI-181 was analyzed in a panel of melanoma cell lines with defined genetic backgrounds including BRAF^V600E and NRAS^Q61L mutations and varied sensitivities to Vemurafenib (BRAF inhibitor) and Trametinib (MEK inhibitor), which are currently used to treat BRAF^V600E melanomas^43,44 (FIG. 10c). […] As a general trend BRAF^V600E cell lines were slightly more sensitive than NRAS^Q61L cell lines and MI-181 was effective in Vemurafenib and Trametinib resistant cell lines (FIG. 10c and Table 3). Finally, we tested the ability of MI-181 to inhibit melanoma colony formation using the M233 and M308 cell lines (both resistant to Vemurafenib). Indeed, MI-181 was a potent inhibitor of colony formation (percentage colony formation for 10 nM MI-181=0.2±0.1 and 0.8±0.7; for 10 nM colchicine=0.1±0.06 and 1.5±0.5; and for 10 nM Vemurafenib=94±7 and 102±5) (FIG. 10d). Thus, MI-181 is a potent inhibitor of melanoma cell lines. […]
# [1] = test system: panel of melanoma cell lines; assay: Cell viability in a panel of melanoma cell lines; settings: melanoma cell lines incl. BRAF V600E and NRAS Q61L mutations; read-out: IC50 across melanoma panel
# Description: as §1
# M202 = assay: CellTiter-Glo cell viability, M202
# Description: as §1
# M308 = assay: Melanoma colony formation, M308; settings: 10 nM, M308 (second value of pair)
# Description: To determine if MI-181 had broad anti-cancer activity, we treated a diverse panel of cancer cell lines including cervical adenocarcinoma (HeLa), breast adenocarcinoma (MCF7), melanoma (M233), osteosarcoma (U205), acute lymphoblastic leukemia (CCRF-CEM), non-small cell lung carcinoma (NCI-H460), and breast adenocarcinoma (MCF7) with MI-181 and determined its cell viability IC50 (FIGS. 13A and 13B). […] Therefore, the efficacy of MI-181 was analyzed in a panel of melanoma cell lines with defined genetic backgrounds including BRAF^V600E and NRAS^Q61L mutations and varied sensitivities to Vemurafenib (BRAF inhibitor) and Trametinib (MEK inhibitor), which are currently used to treat BRAF^V600E melanomas^43,44 (FIG. 10c). […] As a general trend BRAF^V600E cell lines were slightly more sensitive than NRAS^Q61L cell lines and MI-181 was effective in Vemurafenib and Trametinib resistant cell lines (FIG. 10c and Table 3). Finally, we tested the ability of MI-181 to inhibit melanoma colony formation using the M233 and M308 cell lines (both resistant to Vemurafenib). Indeed, MI-181 was a potent inhibitor of colony formation (percentage colony formation for 10 nM MI-181=0.2±0.1 and 0.8±0.7; for 10 nM colchicine=0.1±0.06 and 1.5±0.5; and for 10 nM Vemurafenib=94±7 and 102±5) (FIG. 10d). Thus, MI-181 is a potent inhibitor of melanoma cell lines.
# M244 = assay: CellTiter-Glo cell viability, M244
# Description: as §1
# HeLa cells = assay: CellTiter-Glo cell viability, HeLa cells; settings: Homo sapiens, HeLa
# Description: The cell viability IC50 of each compound was determined using Promega CellTiter-Glo Luminescent Cell Viability Assay kit by measuring the total ATP levels to quantify the number of metabolically active cells upon drug treatment as described in Crouch et al., J Immunol Methods 1993, 160, (1), 81-8. Briefly, the compounds were suspended in DMSO at 10 mM and diluted in 384 plates (20 μl/well in DMSO) in triplicate by a 14-point titration (12 nM to 100 μM). 50 μl of HeLa cells or patient derived glioblastoma cells (HK-309) (2000 cells/well) were then treated with the prepared dilutions of the drugs (0.5 μl) and incubated at 37° C. and 5% CO2. 72 hours later 50 μl of CellTiter-Glo reagent was added to each well followed by a 2 minutes shaking and a 10-minute incubation to lyse the cells. The relative luminescent intensity units (RLU) of each well was measured using a Tecan M1000 microplate reader (Tecan Group Ltd.) with its green filter and 1 second integration time.
# Cells used in Example 2 and other examples disclosed herein were cultured as follows: Adherent HeLa cells and patient derived glioblastoma cells were grown with 5% CO2 at 37° C. in F12:DMEM 50:50 medium (Invitrogen) containing 10% FBS and 1% penicillin/streptomycin. To obtain HeLa cells synchronized in mitosis, cycling cells were treated with 2 mM thymidine (Sigma-Aldrich) for eighteen hours, washed three times with PBS, and released into fresh media until they entered mitosis eight hours post-release. Patient-derived glioblastoma cells (HK-309) were collected and grown with approval from the UCLA Institutional Review Board. HK-309 was derived from a recurrent glioblastoma taken from a person. The cells were initially propagated as cancer stem cell-containing spheres in serum-free medium containing basic fibroblast growth factor and epidermal growth factor (Preprotech) as described previously by Visnyei et al., Mol Cancer Ther 2011, 10, (10), 1818-28.
# For mitotic arrest IC50s, cells were treated with a twenty-point-2-fold-titration (190 pM to 10 μM) of each compound tested for 20 hours. For cell viability IC50s, cells were treated with a fourteen-point-2-fold-titration (12.2 nM to 100 μM). Mitotic arrest IC50 was determined by measuring the percent G2/M arrest using the Vybrant DyeCycle Green (Invitrogen) assay described above. Cell viability IC50 was determined using the CellTiter-Glo Assay (Promega), which measures total ATP levels. Plates were read with a Tecan M1000 micro-plate reader at 540 nm. The CDD software was used for generating IC50 and IC90 values.
# cells = assay: Immunoblot analysis of synchronized cells and drug washout (mitotic arrest reversibility)
# Description: Phospho-histone-H3-488 (Ser10) (p-H3-488, Cell Signaling), α-tubulin (Serotec), AurKB (BD Transduction), Anti-Centromere-Antibodies (ACA, Cortex Biochem), cyclin A and B (Santa Cruz Biotechnology), and SECURIN (Gene Tex). BubR1 and Bub1 were from Hongtao Yu. FITC-, Cy3- and Cy5-conjugated secondary antibodies were from Jackson Immuno Research.
# Cells were synchronized in G1/S, released into the cell cycle in the presence of DMSO or MI-181, and cell extracts were prepared at several time points post-release. […] Additionally, the MI-182-induced mitotic arrest was reversible, as cells exited mitosis within 2 hours of drug washout (FIG. 9).
# M229 = assay: CellTiter-Glo cell viability, M229
# Description: as §1
# M376 = assay: CellTiter-Glo cell viability, M376
# Description: as §1
# M375 = assay: CellTiter-Glo cell viability, M375
# Description: as §1
smiles,measurement,setting,value
Cc1cc2nc(/C=C/c3cccnc3)sc2cc1C [MI-181],IC50,M395,23.4 nM
same,IC50,[1],18 to 90 nM
same,IC50,M202,88.3 nM
same,percentage colony formation,M308,0.8±0.7
same,IC50,M244,41.5 nM
same,IC50,HeLa cells,17.4 nM
same,reversibility of induced mitotic arrest,cells; FIG. 9,reversible
same,cell cycle state by immunoblot,"cells; cells synchronized in G1/S, released in presence of drug","arrested in mitosis (p-H3 positive), activated the SAC (BubR1 remained phosphorylated) and stabilized cyclin B while degrading cyclin A"
same,time to exit mitosis after drug washout,cells; drug washout,≤ 2 h
same,IC50,M229,36.7 nM
same,IC50,M376,39.7 nM
same,IC50,M375,58.2 nM
